This assay concerns IRF3. Nature of the assay: IRF3 activation assay in THP-1 Dual cells. In kind it is cell-based. Particulars: Homo sapiens, read-out: THP1 IRF3 EC50. Here is the method: THP-1 Dual Cells (Invivogen) were maintained in RPMI1640 medium with addition of 10% FBS, 100 μg/ml zeocin, 10 μg/ml blasticidin. Cells were added in a 96-well flat bottom assay plate at 100,000 per well in 100 μL complete RPMI medium. Test compounds were prepared by serial dilution in complete RPMI medium and 100 μL test compounds were transferred to each corresponding well. The assay plate was incubated at 37° C., 5% CO2 for 24 hours. After the overnight incubation, 20 μL of the culture supernatants were collected, followed by addition of 180 μL of QUANTI-Blue (Invivogen) to assess IRF3 activity. The amount of IRF3 activation was assessed by reading the absorbance at 620-655 nm with a microplate reader 2 hours later. The culture supernatant from the untreated THP-1 cells was used as the negative control. EC50 determination was performed by fitting the curve of percent control activity versus the log of the compound concentration using the GraphPad Prism 6.0 software.

Where two headings read alike, the source gives them in different places. A value given as a limit tells only on which side of the number the result lay.

For `CCn1nc(C)cc1C(=O)Nc1nc2cc(C(N)=O)cc(OCCCOC(=O)NCCC(=O)O)c2n1C/C=C/Cn1c2nc(-c3cc(C)nn3CC)ncc2c2cc(C(N)=O)cc(OCCOCCOCCC(=O)O)c21` [Example S63, (E)-3-(((3-((5-carbamoyl-1-(4-(6-carbamoyl-8-(2-(2-(2-carboxyethoxy)ethoxy)ethoxy)-2-(1-ethyl-3-methyl-1H-pyrazol-5-yl)-9H-pyrimido[4,5-b]indol-9-yl)but-2-en-1-yl)-2-(1-ethyl-3-methyl-1H-pyrazole-5-carboxamido)-1H-benzo[d]imidazol-7-yl)oxy)propoxy)carbonyl)amino)propanoic acid], the EC50 (as a rule, the concentration that produces a half-maximal response) (THP-1, Table 4C) is 200 to 500 nM. On to `CCn1nc(C)cc1C(=O)Nc1nc2cc(C(N)=O)cc(OCCCO)c2n1C/C=C/Cn1c2nc(-c3cc(C)nn3CC)ncc2c2cc(C(N)=O)cc(OCCCNC(=O)CCCC(=O)O)c21` [Example S53, (E)-5-(3-(6-carbamoyl-9-(4-(5-carbamoyl-2-(1-ethyl-3-methyl-1H-pyrazole-5-carboxamido)-7-(3-hydroxypropoxy)-1H-benzo[d]imidazol-1-yl)but-2-enyl)-2-(1-ethyl-3-methyl-1H-pyrazol-5-yl)-9H-pyrimido[4,5-b]indol-8-yloxy)propylamino)-5-oxopentanoic acid], for which the EC50 (THP-1, Table 4C) is at most 50 nM. With `CCn1nc(C)cc1C(=O)Nc1nc2cc(C(N)=O)cc(OCCCNS(=O)(=O)CCCC(=O)O)c2n1C/C=C/Cn1c2nc(-c3cc(C)nn3CC)ncc2c2cc(C(N)=O)cc(OCCCOC)c21` [Example S50, (E)-4-(N-(3-((5-carbamoyl-1-(4-(6-carbamoyl-2-(1-ethyl-3-methyl-1H-pyrazol-5-yl)-8-(3-methoxypropoxy)-9H-pyrimido[4,5-b]indol-9-yl)but-2-en-1-yl)-2-(1-ethyl-3-methyl-1H-pyrazole-5-carboxamido)-1H-benzo[d]imidazol-7-yl)oxy)propyl)sulfamoyl)butanoic acid], where the note is “THP-1, Table 4C”, the EC50 was at most 50 nM.

Take `CCn1nc(C)cc1C(=O)Nc1nc2cc(C(N)=O)cc(OCCCOC(=O)NCCC(=O)O)c2n1C/C=C/Cn1c(NC(=O)c2cc(C)nn2CC)nc2cc(C(N)=O)c3ccoc3c21` [Example S66, (E)-3-(((3-((5-carbamoyl-1-(4-(5-carbamoyl-2-(1-ethyl-3-methyl-1H-pyrazole-5-carboxamido)-1H-benzofuro[6,7-d]imidazol-1-yl)but-2-en-1-yl)-2-(1-ethyl-3-methyl-1H-pyrazole-5-carboxamido)-1H-benzo[d]imidazol-7-yl)oxy)propoxy)carbonyl)amino)propanoic acid]: the concentration for a half-maximal effect (EC50) (THP-1, Table 4A) is at most 100 nM.

With `CCn1nc(C)cc1C(=O)Nc1nc2cc(C(N)=O)cc(OC)c2n1C/C=C/Cn1c2nc(-c3cc(C)nn3CC)ncc2c2cc(C(N)=O)cc(OCCCNC(=O)CCCC(=O)O)c21` [Example S51, (E)-5-(3-(6-carbamoyl-9-(4-(5-carbamoyl-2-(1-ethyl-3-methyl-1H-pyrazole-5-carboxamido)-7-methoxy-1H-benzo[d]imidazol-1-yl)but-2-enyl)-2-(1-ethyl-3-methyl-1H-pyrazol-5-yl)-9H-pyrimido[4,5-b]indol-8-yloxy)propylamino)-5-oxopentanoic acid], the EC50 (THP-1, Table 4C) was at most 50 nM.

On to `CCn1nc(C)cc1C(=O)Nc1nc2cc(C(N)=O)cc(OCCOCCOCCC(=O)O)c2n1C/C=C/Cn1c2nc(-c3cc(C)nn3CC)ncc2c2cc(C(N)=O)cc(OCCCOC)c21` [Example S49, (E)-3-(2-(2-((5-carbamoyl-1-(4-(6-carbamoyl-2-(1-ethyl-3-methyl-1H-pyrazol-5-yl)-8-(3-methoxypropoxy)-9H-pyrimido[4,5-b]indol-9-yl)but-2-en-1-yl)-2-(1-ethyl-3-methyl-1H-pyrazole-5-carboxamido)-1H-benzo[d]imidazol-7-yl)oxy)ethoxy)ethoxy)propanoic acid], for which the EC50 (THP-1, Table 4C) is at most 50 nM. For the compound `CCn1nc(C)cc1C(=O)Nc1nc2cc(C(N)=O)cc(C)c2n1C/C=C/Cn1c2ccc(C(N)=O)cc2c2cc(C#N)c(-c3cc(C)nn3CC)nc21` [Example S25, (E)-9-(4-(5-carbamoyl-2-(1-ethyl-3-methyl-1H-pyrazole-5-carboxamido)-7-methyl-1H-benzo[d]imidazol-1-yl)but-2-en-1-yl)-3-cyano-2-(1-ethyl-3-methyl-1H-pyrazol-5-yl)-9H-pyrido[2,3-b]indole-6-carboxamide], the EC50 (THP-1, Table 4A) fell in the range of 100 to 500 nM; the EC50 (THP-1, Table 4B) was below 1000 nM; the EC50 (THP-1, Table 4C) was 200 to 500 nM. Regarding `CCn1nc(C)cc1C(=O)Nc1nc2cc(C(N)=O)cc(OCCCO)c2n1C/C=C/Cn1c2nc(-c3cc(C)nn3CC)ncc2c2cc(C(N)=O)cc(OCCCOC(=O)NCCC(=O)O)c21` [Example S62, (E)-3-((3-(6-carbamoyl-9-(4-(5-carbamoyl-2-(1-ethyl-3-methyl-1H-pyrazole-5-carboxamido)-7-(3-hydroxypropoxy)-1H-benzo[d]imidazol-1-yl)but-2-enyl)-2-(1-ethyl-3-methyl-1H-pyrazol-5-yl)-9H-pyrimido[4,5-b]indol-8-yloxy)propoxy)carbonylamino)propanoic acid], for the setting “THP-1, Table 4C”, the EC50 is 50 to 200 nM. Consider `CCn1nc(C)cc1C(=O)Nc1nc2cc(C(N)=O)cc(OCCCOC)c2n1C/C=C/Cn1c2nc(-c3cc(C)nn3CC)ncc2c2cc(C(N)=O)cc(OCCOCCOCCOCCC(=O)O)c21` [Example S59, (E)-3-(2-(2-(2-(6-carbamoyl-9-(4-(5-carbamoyl-2-(1-ethyl-3-methyl-1H-pyrazole-5-carboxamido)-7-(3-methoxypropoxy)-1H-benzo[d]imidazol-1-yl)but-2-enyl)-2-(1-ethyl-3-methyl-1H-pyrazol-5-yl)-9H-pyrimido[4,5-b]indol-8-yloxy)ethoxy)ethoxy)ethoxy)propanoic acid], for which the EC50 (THP-1, Table 4C) was 50 to 200 nM. In the case of `CCn1nc(C)cc1C(=O)Nc1nc2cc(C(N)=O)cc(OCCCNC(=O)[C@@H](N)CC(=O)O)c2n1C/C=C/Cn1c2nc(-c3cc(C)nn3CC)ncc2c2cc(C(N)=O)cc(OCCCOC)c21` [Example S47, (S,E)-3-amino-4-((3-((5-carbamoyl-1-(4-(6-carbamoyl-2-(1-ethyl-3-methyl-1H-pyrazol-5-yl)-8-(3-methoxypropoxy)-9H-pyrimido[4,5-b]indol-9-yl)but-2-en-1-yl)-2-(1-ethyl-3-methyl-1H-pyrazole-5-carboxamido)-1H-benzo[d]imidazol-7-yl)oxy)propyl)amino)-4-oxobutanoic acid], the 50% effective concentration (EC50) (THP-1, Table 4C) was 50 to 200 nM. In the case of `CCn1nc(C)cc1C(=O)Nc1nc2cc(C(N)=O)cc(C)c2n1C/C=C/Cn1c2ccccc2c2cnc(-c3cc(C)nn3CC)nc21` [Example S2, (E)-1-(4-(2-(1-ethyl-3-methyl-1H-pyrazol-5-yl)-9H-pyrimido[4,5-b]indol-9-yl)but-2-enyl)-2-(1-ethyl-3-methyl-1H-pyrazole-5-carboxamido)-7-methyl-1H-benzo[d]imidazole-5-carboxamide], the EC50 is 100 to 500 nM (THP-1, Table 4A); below 1000 nM (THP-1, Table 4B); 200 to 500 nM (THP-1, Table 4C).

For `CCn1nc(C)cc1C(=O)Nc1nc2cc(C(N)=O)cc(C)c2n1C/C=C/Cn1c2ccc(C(N)=O)cc2c2cnc(-c3cc(C)nn3CC)c(C#N)c21` [Example S26, (E)-5-(4-(5-carbamoyl-2-(1-ethyl-3-methyl-1H-pyrazole-5-carboxamido)-7-methyl-1H-benzo[d]imidazol-1-yl)but-2-en-1-yl)-4-cyano-3-(1-ethyl-3-methyl-1H-pyrazol-5-yl)-5H-pyrido[4,3-b]indole-8-carboxamide], the EC50 was 500 to 1000 nM (THP-1, Table 4A); below 1000 nM (THP-1, Table 4B); 500 to 1000 nM (THP-1, Table 4C).

The values are drawn from patent US11596692B1 (Incyte Corporation, priority 2018, dated 2023).
